# Patent publication US4673684A, “Amide derivatives and 5-lipoxygenase inhibitors containing the same as an active ingredient” (Terumo Corporation, priority 1984, dated 1987)
# pIC50: −log10 of the molar value.
# Target: T1, 5-lipoxygenase (Mus musculus, UniProt P48999)
# T1 construct: The supernatant is used as a 5-lipogenase enzyme solution; endogenous in cells
# T1 sequence (P48999 1-674): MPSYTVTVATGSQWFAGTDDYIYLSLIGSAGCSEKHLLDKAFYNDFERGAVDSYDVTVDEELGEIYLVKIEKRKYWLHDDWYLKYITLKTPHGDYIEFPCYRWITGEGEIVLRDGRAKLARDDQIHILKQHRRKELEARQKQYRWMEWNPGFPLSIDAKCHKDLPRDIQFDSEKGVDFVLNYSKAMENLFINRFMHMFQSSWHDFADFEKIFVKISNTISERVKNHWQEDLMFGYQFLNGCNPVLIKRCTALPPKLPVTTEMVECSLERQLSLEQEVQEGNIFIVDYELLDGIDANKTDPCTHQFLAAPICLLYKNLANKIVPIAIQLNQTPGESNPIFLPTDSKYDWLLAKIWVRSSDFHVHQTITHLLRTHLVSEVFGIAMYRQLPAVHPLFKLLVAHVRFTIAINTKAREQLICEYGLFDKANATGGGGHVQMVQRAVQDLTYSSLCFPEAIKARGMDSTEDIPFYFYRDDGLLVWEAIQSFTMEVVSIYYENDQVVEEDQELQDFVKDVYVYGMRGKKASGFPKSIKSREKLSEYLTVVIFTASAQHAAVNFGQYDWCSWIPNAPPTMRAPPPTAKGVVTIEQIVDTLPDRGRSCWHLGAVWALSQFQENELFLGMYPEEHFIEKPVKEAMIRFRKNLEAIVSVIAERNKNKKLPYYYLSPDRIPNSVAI
# Assay: 5-Lipoxygenase-inhibiting Activity (decrease in 5-HETE and LTB4 formed from radiolabelled arachidonic acid, enzyme solution from mouse mastcytoma cells P-815)
# Format: biochemical
# Conditions: 5-HETE and LTB4 formation; mouse mastcytoma P-815 enzyme solution; 37° C., 5 min; pH 7.4; with indomethacin; read-out: 50% Inhibitory concentration IC50
# Procedure: Mouse mastcytoma cells P-815 are diluted in a culture solution, containing 90% Eagle Basic Medium (manufactured by Gibco Laboratories) to 5×10^4 cells/ml. The diluted solution is cultivated with shaking in air at 37° C. for 48 hours. Then, the culture solution is cooled with ice and centrifuged to collect the cells. The cells are suspended in a phosphate buffer solution at pH 7.4 at a concentration of 2×10^7 cells/ml. The suspension is treated in a ultrasonic cell disintegrater and then centrifuged at 10,000 r.p.m. for 10 min. The supernatant is used as a 5-lipogenase enzyme solution. In test tubes are placed 20 μl of radiolabelled arachidonic acid ([…]), indomethacin (2×10^-8 mol) and an amide derivative to be tested, respectively. To each of the test tubes are added 0.45 ml of a phosphate buffer solution, 0.45 ml of the above-prepared suspension, 0.45 ml of the above-prepared enzyme solution and 0.1 ml of 8 mM CaCl2 (calcium chloride). The mixture is reacted at 37° C. for 5 min. After cooled with ice, 60 μl of 1N-HCl (hydrochloric acid is added to the reaction mixture, which is then extracted with 8 ml of ethyl acetate. The extract is concentrated, and the concentrate is developed by spotting on a silica gel thin layer plate (Merck 60F 254). Measurement of the inhibitory activity is made by collecting fractions corresponding to lipoxygenase products 5-HETE (5(s)-hydroxy-6,8,11,14-eicosatetraenic acid) and LTB4 (leucotriene B4) and determining the radioactivity by a liquid scintillation counter. The lipoxygenase inhibiting activity is determined by decrease in the amount of the above-mentioned 5-lipoxygenaseproducts. […] 50% inhibitory concentration or 30% inhibitory concentration as indicated in the table means the concentration of an amide derivative required for reducing the amount of the above-mentioned 5-lipoxygenase products (5-HETE and LTB4) to 50% or 30% of the amount when the amount of 5-HETE and LTB4 produced in the absenced of the amide derivative is 100%.
row,Structure (SMILES),pIC50
1,"CC/C=C\C/C=C\C/C=C\CCCCCCCC(=O)NCCCCNC(=O)/C=C/c1ccc(O)c(OC)c1 [Example 3, N-[3-(3-methoxy-4-hydroxyphenyl)-2-propenoyl]-N'-[9,12,15-octadecatrienoyl]-1,4-diaminobutan]",6.05
2,"COc1cc(/C=C/C(=O)NCCCCNC(=O)/C=C/c2ccc(O)c(OC)c2)ccc1O [Example 4, N,N'-bis-{3-(3-methoxy-4-hydroxyphenyl)-2-propenoyl}-1,4-diaminobutane]",5.70
3,"CC(=O)OCc1cnc(C)c(O)c1CNC(=O)/C=C/c1ccc(O)c(O)c1 [Example 5, N-caffeoyl-o-acetylpyridoxane]",6.00
4,"CC/C=C\C/C=C\C/C=C\C/C=C\C/C=C\C/C=C\CCC(=O)NCCCCNC(=O)/C=C/c1ccc(O)c(O)c1 [Example 6, N-[3-(3,4-dihydroxyphenyl)-2-propenoyl]-N'-[4,7,10,13,16,19-docosahexaenoyl]1,4-diaminobutane]",7.22
5,"O=C(/C=C/c1ccc(O)c(O)c1)NCCCCNC(=O)/C=C/c1ccc(O)c(O)c1 [Example 7, N,N'-bis-[(3,4-dihydroxyphenyl)-2-propenoyl]-1,4-diaminobutane]",6.30
6,"O=C(/C=C/c1ccc(O)c(O)c1)Nc1cc(Cl)ccc1O [Example 10, N-{3-(3,4-dihydroxyphenyl)-2-propenoyl}-5-chloro-2-hydroxyaniline]",7.52
7,"O=C(/C=C/c1ccc(O)c(O)c1)Nc1ccccc1O [Example 11, N-{3-(3,4-dihydroxyphenyl)-2-propenoyl}-o-aminophenol]",7.40
8,"COc1cc(/C=C/C=C/C(=O)NCCCCNC(=O)/C=C/C=C/c2ccc(O)c(OC)c2)ccc1O [Example 14, N,N'-di{5-(3-methoxy-4-hydroxyphenyl)-2,4-pentadienoyl}-1,4-diaminobutane]",7.00
9,COc1cc(/C=C/C=C/C(=O)NCc2c(CO)cnc(C)c2O)ccc1O [Example 17],5.40

# Continued, values first:
row,pIC50,Structure (SMILES)
1,6.30,"COc1cc(/C=C/C(=O)NCCN2CCN(C(c3ccccc3)c3ccc(Cl)cc3)CC2)ccc1O (centres unmarked) [Example 1, N-(p-chlorobenzhydryl)-N'-[2-{3-(3-methoxy-4-hydroxyphenyl)-2-propenoyl}-aminoethyl]piperazine]"
2,6.22,"COc1cc(/C=C/C(=O)NCCN2CCN(C(c3ccccc3)c3ccccc3)CC2)ccc1O [Example 2, N-benzhydryl-N'-[2-{3-(3-methoxy-4-β-hydroxyphenyl)-2-propenoyl}aminoethyl]piperazine]"
3,7.00,"O=C(/C=C/c1ccc(O)c(O)c1)N1CCN(C(c2ccccc2)c2ccccc2)CC1 [Example 8, N-benzhydryl-N'-{(3,4-dihydroxyphenyl)-2-propenoyl}-piperazine]"
4,7.00,"O=C(/C=C/c1ccc(O)c(O)c1)NCCN1CCN(C(c2ccccc2)c2ccccc2)CC1 [Example 9, N-benzhydryl-N'-[2-{3-(3,4-dihydroxyphenyl)-2-propenoyl}-aminoethyl]piperazine]"
5,7.10,"O=C(/C=C/c1ccc(O)c(O)c1)NCCN1CCN(C(c2ccccc2)c2ccc(Cl)cc2)CC1 (centres unmarked) [Example 12, N-(p-chlorobenzhydryl)-N'-[2-{3-(3,4-dihydroxyphenyl)-2-propenoyl}aminoethyl]piperazine]"
6,6.22,"COc1cc(/C=C/C=C/C(=O)Nc2ccccc2C(=O)O)ccc1O [Example 13, N-5-(3-methoxy-4-hydroxyphenyl)-2,4-pentadienoylanthranilic acid]"
7,7.05,"COc1cc(/C=C/C=C/C(=O)N2CCN(C(c3ccccc3)c3ccccc3)CC2)ccc1O [Example 15, 1-benzhydryl-4-{5-(3-methoxy-4-hydroxyphenyl)-2,4-pentadienoyl}piperazene]"
8,7.22,"COc1cc(/C=C/C=C/C(=O)NCCN2CCN(C(c3ccccc3)c3ccc(Cl)cc3)CC2)ccc1O (centres unmarked) [Example 16, N-(p-chlorobenzhydryl)-N'-[2-{5-(3-methoxy-4-hydroxyphenyl)-2,4-pentadienoyl}aminoethyl]piperazine]"
